Strand notation (5' to 3'): a small letter for the sugar, then the base; units joined by * are phosphorothioate-linked, units joined directly phosphodiester-linked; [ ] holds rarer units or linkages, { } end groups; capitals alone tell only the bases. e = 2'-O-(2-methoxyethyl) (MOE); [5mC] = 5-methylcytosine; d = 2'-deoxy (DNA)
Assays:
[1] = test system: rat DGAT2 mRNA; assay: Dose-dependent inhibition of DGAT2 in A10 cells, 0.62-150 nM (Example 22, Table 83); assay type: cell-based
Method: Additional short antisense compounds targeted to DGAT2 mRNA were tested in vitro. A10 cells were prepared as described above and treated with 0.62, 1.85, 5.56, 16.67, 50.0, and 150.0 nM short antisense compounds to determine if DGAT2 inhibition occurs in a dose-dependent manner. DGAT2 mRNA was measured using quantitative real-time PCR, as described herein. […] Results are presented as percent inhibition of rat DGAT2, relative to untreated control cells.

[2] = test system: DGAT2 mRNA; assay: Antisense inhibition of DGAT2 in A10 cells at 75 nM (Example 22, Table 81); assay type: cell-based, rat; settings: approximately 24 hours
Method: Short antisense compounds targeted to a DGAT2 nucleic acid were tested for their effects on DGAT2 mRNA in vitro. Cultured A10 cells in a 96-well plate were treated with 75 nM of short antisense compound. After a treatment period of approximately 24 hours, RNA was isolated from the cells and DGAT2 mRNA levels were measured by quantitative real-time PCR, as described herein. DGAT2 mRNA levels were adjusted according to total RNA content as measured by RIBOGREEN®. […]

[3] = test system: rat DGAT2 mRNA; assay: Dose-dependent inhibition of DGAT2 in A10 cells, 6.25-200 nM (Example 22, Table 82); assay type: cell-based
Method: Additional short antisense compounds targeted to DGAT2 mRNA were tested in vitro in a dose-response experiment. A10 cells were prepared as described above and treated with 6.25, 12.5, 25.0, 50.0, 100.0, and 200.0 nM short antisense compounds to determine if DGAT2 inhibition occurs in a dose-dependent manner. […] Results are presented as percent inhibition, relative to untreated control cells.

[4] = test system: rat SGLT2 mRNA; assay: Rat SGLT2 mRNA levels in kidney, 1-10-1 and 1-10-2 MOE gapmers, Sprague-Dawley rats (Example 13, Table 63); assay type: in vivo
Description: 1-10-1 and 1-10-2 MOE gapmer antisense compounds, provided in Table 62, were designed to target different regions of the mouse or rat SGLT2 RNA. All short antisense compounds in Table 62 are chimeric oligonucleotides (“gapmers”) either 12 or 13 nucleotides in length, composed of a central “gap” segment consisting of ten 2′-deoxynucleotides, which are flanked on the 5′ side by a one-nucleoside “wing” and on the 3′ side by a two or one-nucleotide “wing”. […] All cytidine residues are 5-methylcytidines.
The short antisense compounds were analyzed for their effect on rat SGLT2 mRNA levels. Data are ranges taken from three experiments in which Male Sprague-Dawley rats (170-200 g) were dosed twice per week for three weeks with 450, 150 or 50 nmol/kg of either a 1-10-1 or 1-10-2 MOE gapmer given by intraperitoneal injection. Rats were sacrificed 48 hours following last administration and evaluated for SGLT2 mRNA levels in kidney. Target levels were determined by RT, real-time PCR as described by other examples herein. PCR results were normalized to an internal ISIS control.

[5] = 50 nmol/kg i.p. twice per week for three weeks
[6] = 150 nmol/kg i.p. twice per week for three weeks
[7] = 450 nmol/kg i.p. twice per week for three weeks

Substance	percent inhibition of rat DGAT2 ([1]; 0.62 nM)	percent inhibition of rat DGAT2 ([1]; 1.85 nM)	percent inhibition of rat DGAT2 ([1]; 5.56 nM)	percent inhibition of rat DGAT2 ([1]; 16.67 nM)	percent inhibition of rat DGAT2 ([1]; 50 nM)	percent inhibition of rat DGAT2 ([1]; 150 nM)	DGAT2 mRNA, % Control [2] [%]	percent inhibition of DGAT2 ([3]; 6.25 nM)	percent inhibition of DGAT2 ([3]; 12.5 nM)	percent inhibition of DGAT2 ([3]; 50.0 nM)	percent inhibition of DGAT2 ([3]; 100.0 nM)	percent inhibition of DGAT2 ([3]; 200.0 nM)	percent inhibition of DGAT2 ([3]; […])	% change in SGLT2 expression relative to saline [4, 5] [%]	% change in SGLT2 expression relative to saline [4, 6] [%]	% change in SGLT2 expression relative to saline [4, 7] [%]
372586 (antisense eG*eT*dT*d[5mC]*d[5mC]*dT*dG*dG*dT*dG*dG*dT*e[5mC]*eA) [compound 372586]	0	0	0	0	7	55	40	19	0	22	45	77	7			
372602 (antisense e[5mC]*e[5mC]*dA*dG*dG*d[5mC]*dA*dT*dG*dG*dA*dG*e[5mC]*eT) [compound 372602]	0	0	10	0	19	51	39	0	0	18	47	76	0			
ISIS 382677: SGLT2; GGCATGAGCTTCA 1-10-2 MOE (antisense eG*dG*d[5mC]*dA*dT*dG*dA*dG*d[5mC]*dT*dT*e[5mC]*eA)														−40	−60	−75
372618 (antisense eG*eT*dG*dG*dT*dA*d[5mC]*dA*dG*dG*dT*d[5mC]*eG*eA) [compound 372618]	0	0	0	0	30	60	29	0	5	27	65	80	0			
ISIS 382675 (antisense eT*dA*dG*d[5mC]*d[5mC]*dA*d[5mC]*d[5mC]*dA*dA*d[5mC]*eT*eG)														−50	−65	−80
